The target in the experiment is T1, human TLR8 (Homo sapiens, UniProt Q9NR97).
T1 construct: host or cells: HEK293 (HEK-Blue hTLR8)
T1 sequence (Q9NR97 27-1041): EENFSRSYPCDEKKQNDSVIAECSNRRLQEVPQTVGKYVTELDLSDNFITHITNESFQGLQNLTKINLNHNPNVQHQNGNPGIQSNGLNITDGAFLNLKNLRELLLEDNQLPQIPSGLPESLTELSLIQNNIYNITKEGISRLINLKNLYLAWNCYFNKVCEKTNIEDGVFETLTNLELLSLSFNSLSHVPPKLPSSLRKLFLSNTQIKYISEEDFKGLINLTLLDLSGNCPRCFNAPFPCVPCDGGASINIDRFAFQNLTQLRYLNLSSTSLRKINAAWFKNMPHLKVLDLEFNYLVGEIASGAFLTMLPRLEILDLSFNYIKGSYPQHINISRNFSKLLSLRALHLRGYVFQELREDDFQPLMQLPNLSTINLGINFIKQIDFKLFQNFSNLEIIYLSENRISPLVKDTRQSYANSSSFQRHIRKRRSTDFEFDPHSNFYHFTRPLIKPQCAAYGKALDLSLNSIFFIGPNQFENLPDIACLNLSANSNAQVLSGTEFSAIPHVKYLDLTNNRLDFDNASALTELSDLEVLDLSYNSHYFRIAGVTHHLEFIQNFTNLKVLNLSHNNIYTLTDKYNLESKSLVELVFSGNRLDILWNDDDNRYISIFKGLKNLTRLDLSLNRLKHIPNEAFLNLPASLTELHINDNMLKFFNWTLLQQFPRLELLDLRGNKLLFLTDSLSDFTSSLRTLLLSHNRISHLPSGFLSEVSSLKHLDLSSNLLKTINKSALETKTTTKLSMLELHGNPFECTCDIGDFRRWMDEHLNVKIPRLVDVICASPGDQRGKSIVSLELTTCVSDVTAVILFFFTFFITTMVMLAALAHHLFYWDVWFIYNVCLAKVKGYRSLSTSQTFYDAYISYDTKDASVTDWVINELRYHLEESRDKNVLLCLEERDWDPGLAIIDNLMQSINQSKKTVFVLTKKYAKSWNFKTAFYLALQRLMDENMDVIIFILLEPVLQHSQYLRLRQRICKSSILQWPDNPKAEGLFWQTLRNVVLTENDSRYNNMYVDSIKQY
Briefly: HEK293-Blue-hTLR-8 cells assay (SEAP reporter, R848 stimulation). Particulars: HEK293-Blue-hTLR8 cells, R848, 20 hrs; read-out: HEK/hTLR8 IC50. It is filed as cell-based. In short, it runs like this: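 HEK293-Blue-hTLR8 cells (NF-κB/AP-1-driven SEAP) incubated 20 h at 37° C with serially diluted compound (1% DMSO) plus R848 stimulation. Supernatant SEAP measured with QUANTI-Blue, 2 h at 37° C, absorbance 620–655 nm.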
For `C[C@@H]1CN(c2ccc(C#N)n3ncc(F)c23)C[C@H](CN2CCN(c3ccc(N4C[C@H]5NCCO[C@@H]5C4)nc3)CC2)O1` [Example 168, 4-[(2S,6R)-2-[[4-[6-[(4aR,7aR)-3,4,4a,5,7,7a-hexahydro-2H-pyrrolo[3,4-b][1,4]oxazin-6-yl]-3-pyridyl]piperazin-1-yl]methyl]-6-methyl-morpholin-4-yl]-3-fluoro-pyrazolo[1,5-a]pyridine-7-carbonitrile], the IC50 came out at 57 nM.

As to `C[C@@H]1CN(c2ccc(C#N)c3ncccc23)C[C@H](CN2CCN(c3ccc([C@H]4CNCCO4)cc3)CC2)O1` [Example 20, 5-[(2R,6S)-2-methyl-6-[[4-[4-[(2S)-morpholin-2-yl]phenyl]piperazin-1-yl]methyl]morpholin-4-yl]quinoline-8-carbonitrile], the IC50 is 10 nM.

In the case of `CO[C@H]1CN(c2nc(C)cc(N3CCN(C[C@H]4CN(c5ccc(C#N)c6ncccc56)C[C@@H](C)O4)CC3)n2)C[C@H]1N` [Example 60, 5-[(2R,6S)-2-methyl-6-[[4-[6-methyl-2-[cis-3-amino-4-methoxy-pyrrolidin-1-yl]pyrimidin-4-yl]piperazin-1-yl]methyl]morpholin-4-yl]quinoline-8-carbonitrile], the IC50 stood at 3 nM.

Regarding `C[C@@H]1CN(c2ccc(C#N)c3ncccc23)C[C@H](CN2CCN(c3ccnc(NC4CNC4)n3)CC2)O1` [Example 28, 5-[(2S,6R)-2-[[4-[2-(azetidin-3-ylamino)pyrimidin-4-yl]piperazin-1-yl]methyl]-6-methyl-morpholin-4-yl]quinoline-8-carbonitrile], the IC50 came out at 4 nM.

For the compound `COc1cnc(N2CCNCC2)nc1N1CCN(C[C@H]2CN(c3ccc(C#N)c4ncccc34)C[C@@H](C)O2)CC1` [Example 48, 5-[(2S,6R)-2-[[4-(5-methoxy-2-piperazin-1-yl-pyrimidin-4-yl)piperazin-1-yl]methyl]-6-methyl-morpholin-4-yl]quinoline-8-carbonitrile], the IC50 is 4 nM.

With `C[C@@H]1CN(c2cc(=O)n(C)c3ncccc23)C[C@H](CN2CC(c3ccc(N4C[C@H]5NCCO[C@@H]5C4)cc3)C2)O1` [Example 182, 4-[(2S,6R)-2-[[3-[4-[(4aR,7aR)-3,4,4a,5,7,7a-hexahydro-2H-pyrrolo[3,4-b][1,4]oxazin-6-yl]phenyl]azetidin-1-yl]methyl]-6-methyl-morpholin-4-yl]-1-methyl-1,8-naphthyridin-2-one], the IC50 turned out to be 51 nM.

In the case of `C[C@@H]1CN(c2ccc(C#N)c3ncccc23)C[C@H](CN2CCN(c3cccc(NC4CNC4)n3)CC2)O1` [Example 38], the IC50 is 11 nM.

In the case of `C[C@@H]1CN(c2ccc(C#N)c3ncccc23)C[C@H](CN2CCN(c3cnc(N4CCNCC4)nc3)CC2)O1` [Example 12, 5-[(2R,6S)-2-methyl-6-[[4-(2-piperazin-1-ylpyrimidin-5-yl)piperazin-1-yl]methyl]morpholin-4-yl]quinoline-8-carbonitrile], the IC50 came out at 3 nM.

On to `C[C@@H]1CN(c2ccc(C#N)n3ncc(F)c23)C[C@H](CN2CCN(c3ccc(N4CC5(CCN5)C4)nc3)CC2)O1` [Example 179, 4-[(2S,6R)-2-[[4-[6-(1,6-diazaspiro[3.3]heptan-6-yl)-3-pyridyl]piperazin-1-yl]methyl]-6-methyl-morpholin-4-yl]-3-fluoro-pyrazolo[1,5-a]pyridine-7-carbonitrile], for which the IC50 turned out to be 54 nM.

As for `C[C@@H]1CN(c2ccc(C#N)c3ncccc23)C[C@H](CN2CCN(c3cncc(N4CCNCC4)c3)CC2)O1` [Example 7, 5-[(2R,6S)-2-methyl-6-[[4-(5-piperazin-1-yl-3-pyridyl)piperazin-1-yl]methyl]morpholin-4-yl]quinoline-8-carbonitrile], the IC50 was determined as 9 nM.

In the case of `C[C@@H]1CN(c2ccc(C#N)n3ncc(F)c23)C[C@H](CN2CCN(c3ccc(N[C@H]4CNC[C@H]4F)nc3)CC2)O1` [Example 167, 3-fluoro-4-[(2S,6R)-2-[[4-[6-[[(3S,4R)-4-fluoropyrrolidin-3-yl]amino]-3-pyridyl]piperazin-1-yl]methyl]-6-methyl-morpholin-4-yl]pyrazolo[1,5-a]pyridine-7-carbonitrile], the IC50 was 34 nM.

Take `C[C@@H]1CN(c2ccc(C#N)c3ncccc23)C[C@H](CN2CCN(c3nc(N4CCNCC4)ncc3F)CC2)O1` [Example 45, 5-[(2S,6R)-2-[[4-(5-fluoro-2-piperazin-1-yl-pyrimidin-4-yl)piperazin-1-yl]methyl]-6-methyl-morpholin-4-yl]quinoline-8-carbonitrile]: the IC50 was 4 nM.

Consider `Cc1cc(N2CCN(C[C@H]3CN(c4ccc(C#N)c5ncccc45)C[C@@H](C)O3)CC2)nc(N2CCOCC(N)C2)n1` (stereo partly drawn) [Example 56, 5-[(2S,6R)-2-[[4-[2-(6-amino-1,4-oxazepan-4-yl)-6-methyl-pyrimidin-4-yl]piperazin-1-yl]methyl]-6-methyl-morpholin-4-yl]quinoline-8-carbonitrile], for which the IC50 is 6 nM.

In the case of `C[C@@H]1CN(c2ccc(C#N)c3ncccc23)C[C@H](CN2CCN(c3ncc(N4CCNCC4)cn3)CC2)O1` [Example 17, 5-[(2R,6S)-2-methyl-6-[[4-(5-piperazin-1-ylpyrimidin-2-yl)piperazin-1-yl]methyl]morpholin-4-yl]quinoline-8-carbonitrile], the IC50 amounted to 6 nM.

`C[C@@H]1CN(c2ccc(C#N)c3ncccc23)C[C@H](CN2CCN(c3nc(N4CCNCC4)ncc3C#N)CC2)O1` [Example 50, 5-[(2S,6R)-2-[[4-(5-cyano-2-piperazin-1-yl-pyrimidin-4-yl)piperazin-1-yl]methyl]-6-methyl-morpholin-4-yl]quinoline-8-carbonitrile]: the IC50 came to 3 nM.

Consider `C[C@@H]1CN(c2ccc(C#N)c3ncccc23)C[C@H](CN2CCN(c3ccnc(N4CCC(N)CC4)n3)CC2)O1` [Example 27, 5-[(2S,6R)-2-[[4-[2-(4-amino-1-piperidyl)pyrimidin-4-yl]piperazin-1-yl]methyl]-6-methyl-morpholin-4-yl]quinoline-8-carbonitrile], for which the IC50 was determined as 3 nM.

For the compound `C[C@@H]1CN(c2ccc(C#N)c3ncccc23)C[C@H](CN2CCN(c3ccnc(N4CCNCC4)n3)CC2)O1` [Example 15, 5-[(2R,6S)-2-methyl-6-[[4-(2-piperazin-1-ylpyrimidin-4-yl)piperazin-1-yl]methyl]morpholin-4-yl]quinoline-8-carbonitrile], the IC50 is 3 nM.

`Cc1cc(N2CCN(C[C@H]3CN(c4ccc(C#N)n5ncc(F)c45)C[C@@H](C)O3)CC2)nc(N2CCNCC2)n1` [Example 67, 3-Fluoro-4-[(2R,6S)-2-methyl-6-[[4-(6-methyl-2-piperazin-1-yl-pyrimidin-4-yl)piperazin-1-yl]methyl]morpholin-4-yl]pyrazolo[1,5-a]pyridine-7-carbonitrile]: the IC50 stood at 23 nM.

Consider `C[C@@H]1CN(c2ccc(C#N)c3ncccc23)C[C@H](CN2CCN(c3ccnc(OCCN(C)C)n3)CC2)O1` [Example 30, 5-[(2S,6R)-2-[[4-[2-[2-(dimethylamino)ethoxy]pyrimidin-4-yl]piperazin-1-yl]methyl]-6-methyl-morpholin-4-yl]quinoline-8-carbonitrile], for which the IC50 amounted to 6 nM.

Consider `C[C@@H]1CN(c2ccc(C#N)c3ncccc23)C[C@H](CN2CCN(c3cccc(N[C@H]4CNC[C@H]4F)n3)CC2)O1` [Example 37, 5-[(2S,6R)-2-[[4-[6-[[(3S,4R)-4-fluoropyrrolidin-3-yl]amino]-2-pyridyl]piperazin-1-yl]methyl]-6-methyl-morpholin-4-yl]quinoline-8-carbonitrile], for which the IC50 was 30 nM.

As to `C[C@@H]1CN(c2ccc(C#N)n3ncc(F)c23)C[C@H](CN2CCN(c3ccc([C@@H]4CNCCO4)c(F)c3)CC2)O1` [Example 184, 3-fluoro-4-[(2S,6R)-2-[[4-[3-fluoro-4-[(2R)-morpholin-2-yl]phenyl]piperazin-1-yl]methyl]-6-methyl-morpholin-4-yl]pyrazolo[1,5-a]pyridine-7-carbonitrile], the IC50 was 14 nM.

As to `C[C@@H]1CN(c2ccc(C#N)c3ncccc23)C[C@H](CN2CCN(c3ccc(N4CCNCC4)cn3)CC2)O1` [Example 8, 5-[(2R,6S)-2-methyl-6-[[4-(5-piperazin-1-yl-2-pyridyl)piperazin-1-yl]methyl]morpholin-4-yl]quinoline-8-carbonitrile], the IC50 amounted to 10 nM.

The record behind these values is patent US20210395239A1 (Hoffmann-La Roche Inc., priority 2018, published 2021).
